Activity calls are given as the source filed them. The rule behind the calls is not given here.
Columns and labels:
RAW264.7 [1] = experiment: Inhibition of osteoclastogenesis in RANKL-induced osteoclast differentiation in mouse RAW264.7 cells incubated for 4 days by TRAP staining based analysis; format: functional, cell-based; settings: time 4.0 day
RAW264.7 [2] = experiment: Cytotoxicity against mouse RAW264.7 cells assessed as decrease in cell viability at 1 uM incubated for 48 hrs by MTT assay; format: toxicity, cell-based; settings: raw264.7, 48 h

| Structure (SMILES) | inhibition (RAW264.7 [1]) | Activity (RAW264.7 [2]) |
| --- | --- | --- |
| O=C1C([Se]c2cccc(Cl)c2)=C([Se]c2cccc(Cl)c2)C(=O)N1Cc1ccccc1 | inactive |  |
| O=C1C=CC(=O)N1Cc1ccccc1 | inactive |  |
| Cc1cccc(CN2C(=O)C([Se]c3ccccc3)=C([Se]c3ccccc3)C2=O)c1 | inactive | Toxic |
| CN1C(=O)C([Se]c2ccccc2)=C([Se]c2ccccc2)C1=O | inactive |  |
| O=C1C([Se]c2ccccc2Cl)=C([Se]c2ccccc2Cl)C(=O)N1c1ccccc1 | Active |  |
| O=C1C([Se]c2ccc(Cl)cc2)=C([Se]c2ccc(Cl)cc2)C(=O)N1Cc1ccccc1 | inactive |  |
| CCc1ccc(N2C(=O)C([Se]c3ccccc3)=C([Se]c3ccccc3)C2=O)cc1 | Active | Toxic |
| Cc1ccccc1CN1C(=O)C([Se]c2ccccc2)=C([Se]c2ccccc2)C1=O | inactive |  |
| O=C1C([Se]c2cccc(Br)c2)=C([Se]c2cccc(Br)c2)C(=O)N1Cc1ccccc1 | inactive |  |
| O=C1C([Se]c2cccc(F)c2)=C([Se]c2cccc(F)c2)C(=O)N1Cc1ccccc1 | inactive |  |
| O=C1C([Se]c2ccccc2)=C([Se]c2ccccc2)C(=O)N1Cc1ccc(Cl)cc1 | inactive |  |
| COc1ccc(CN2C(=O)C([Se]c3ccccc3)=C([Se]c3ccccc3)C2=O)cc1 | inactive |  |
| O=C1C([Se]c2ccccc2)=C([Se]c2ccccc2)C(=O)N1Cc1ccc(F)cc1 | inactive |  |
| O=C1C([Se]c2ccccc2)=C([Se]c2ccccc2)C(=O)N1Cc1cccc(Cl)c1 | inactive | Toxic |
| COc1ccc([Se]C2=C([Se]c3ccc(OC)cc3)C(=O)N(Cc3ccccc3)C2=O)cc1 | inactive |  |
| O=C1C([Se]c2ccccc2)=C([Se]c2ccccc2)C(=O)N1c1ccc(Br)cc1 | inactive |  |
| C[Se]C1=C([Se]C)C(=O)N(Cc2ccccc2)C1=O | inactive |  |
| CC(C)(C)N1C(=O)C([Se]c2ccccc2)=C([Se]c2ccccc2)C1=O | inactive |  |
| N#Cc1ccc(CN2C(=O)C([Se]c3ccccc3)=C([Se]c3ccccc3)C2=O)cc1 | inactive |  |
| Cc1ccc([Se]C2=C([Se]c3ccc(C)cc3)C(=O)N(c3ccccc3)C2=O)cc1 | Active | Toxic |
| O=C1C([Se]c2ccccc2)=C([Se]c2ccccc2)C(=O)N1c1c(Cl)cc(Cl)cc1Cl | inactive |  |
| COc1ccccc1[Se]C1=C([Se]c2ccccc2OC)C(=O)N(Cc2ccccc2)C1=O | inactive |  |
| O=C1C([Se]c2ccccc2)=C([Se]c2ccccc2)C(=O)N1Cc1ccc(I)cc1 | inactive |  |
| O=C1C([Se]c2ccc(Br)cc2)=C([Se]c2ccc(Br)cc2)C(=O)N1c1ccccc1 | inactive | Toxic |

| Structure (SMILES) | inhibition (RAW264.7 [1]) | Activity (RAW264.7 [2]) |
| --- | --- | --- |
| Cc1ccc(CN2C(=O)C([Se]c3ccccc3)=C([Se]c3ccccc3)C2=O)cc1 | inactive | Toxic |
| O=C1C([Se]c2ccccc2)=C([Se]c2ccccc2)C(=O)N1c1ccccc1 | inactive |  |
| O=C1C([Se]c2ccccc2Br)=C([Se]c2ccccc2Br)C(=O)N1c1ccccc1 | inactive | Toxic |
| Cc1ccccc1[Se]C1=C([Se]c2ccccc2C)C(=O)N(Cc2ccccc2)C1=O | inactive |  |
| O=C1C([Se]c2ccccc2)=C([Se]c2ccccc2)C(=O)N1Cc1cccc(F)c1 | inactive |  |
| O=C1C([Se]c2ccccc2)=C([Se]c2ccccc2)C(=O)N1C1CCCCC1 | inactive |  |
| CCN1C(=O)C([Se]c2ccccc2)=C([Se]c2ccccc2)C1=O | inactive |  |
| CCC[Se]C1=C([Se]CCC)C(=O)N(c2ccccc2)C1=O | inactive |  |
| Cc1cccc([Se]C2=C([Se]c3cccc(C)c3)C(=O)N(c3ccccc3)C2=O)c1 | Active |  |
| O=C1C(Sc2ccccc2)=C(Sc2ccccc2)C(=O)N1Cc1ccccc1 | inactive |  |
| O=C1C([Se]c2ccccc2)=C([Se]c2ccccc2)C(=O)N1Cc1cccc(Br)c1 | inactive |  |
| O=C1C=C([Se]c2ccccc2)C(=O)N1Cc1ccccc1 | inactive |  |
| CC(=O)c1ccc(N2C(=O)C([Se]c3ccccc3)=C([Se]c3ccccc3)C2=O)cc1 | Active |  |
| O=C1C([Se]c2ccccc2Cl)=C([Se]c2ccccc2Cl)C(=O)N1Cc1ccccc1 | inactive |  |
| CC[Se]C1=C([Se]CC)C(=O)N(c2ccccc2)C1=O | inactive |  |
| Cc1cccc([Se]C2=C([Se]c3cccc(C)c3)C(=O)N(Cc3ccccc3)C2=O)c1 | inactive |  |
| N#Cc1cccc([Se]C2=C([Se]c3cccc(C#N)c3)C(=O)N(c3ccccc3)C2=O)c1 | inactive | Toxic |
| O=C1C([Se]c2cccc([N+](=O)[O-])c2)=C([Se]c2cccc([N+](=O)[O-])c2)C(=O)N1Cc1ccccc1 | inactive |  |
| COc1ncccc1[Se]C1=C([Se]c2cccnc2OC)C(=O)N(c2ccccc2)C1=O | inactive | Toxic |
| O=C1NC(=O)C([Se]c2ccccc2)=C1[Se]c1ccccc1 | Active |  |
| COC(=O)CCN1C(=O)C([Se]c2ccccc2)=C([Se]c2ccccc2)C1=O | inactive |  |
| O=C1C([Se]c2ccccc2)=C([Se]c2ccccc2)C(=O)N1Cc1ccccc1Cl | inactive |  |
| N#Cc1ccc([Se]C2=C([Se]c3ccc(C#N)cc3)C(=O)N(Cc3ccccc3)C2=O)cc1 | inactive |  |
| O=C1C([Se]c2ccccc2)=C([Se]c2ccccc2)C(=O)N1Cc1ccccc1Br | inactive | Toxic |

Reference: ChEMBL document CHEMBL6120947, “Synthesis and Antiosteoporotic Characterization of Diselenyl Maleimides: Discovery of a Potent Agent for the Treatment of Osteoporosis by Targeting RANKL” (J Med Chem, 2024)
